Patent US6110962A, “11-aryl-benzo[B]naphtho[2,3-D]furans and 11-aryl-benzo[B]naphtho[2,3-D]thiophenes useful in the treatment of insulin resistance and hyperglycemia” (American Home Products Corporation, priority 1999, dated 2000)
Where a name gives a salt, the structure may show the parent alone.

Tests used:
[1] = system: rat hepatic microsomal PTPases; details: PTPase activity, compound at 50 μM
Human recombinant PTP1B = molecular target: T1, Human recombinant PTP1B (Homo sapiens, UniProt P18031); format: biochemical; details: read-out: IC50
T1 construct: made in house
T1 sequence (P18031 1-435): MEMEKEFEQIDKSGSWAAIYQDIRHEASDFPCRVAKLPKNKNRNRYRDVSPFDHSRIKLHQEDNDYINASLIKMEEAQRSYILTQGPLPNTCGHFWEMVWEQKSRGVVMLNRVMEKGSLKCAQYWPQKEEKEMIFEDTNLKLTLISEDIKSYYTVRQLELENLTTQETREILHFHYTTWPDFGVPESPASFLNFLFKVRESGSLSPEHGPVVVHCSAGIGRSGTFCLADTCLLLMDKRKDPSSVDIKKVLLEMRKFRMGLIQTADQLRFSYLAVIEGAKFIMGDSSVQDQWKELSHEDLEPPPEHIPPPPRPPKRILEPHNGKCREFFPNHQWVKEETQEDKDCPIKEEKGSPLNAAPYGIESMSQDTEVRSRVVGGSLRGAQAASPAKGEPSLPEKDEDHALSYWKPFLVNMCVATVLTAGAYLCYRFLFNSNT

| % Change from Control [1] [%] | IC50 (Human recombinant PTP1B) [nM] | Structure (SMILES) |
| --- | --- | --- |
| -15.22 | 554 | Oc1ccc(-c2c3ccccc3cc3sc4ccccc4c23)cc1O [Example 18, 4-(Benzo[b]naphtho[2,3-d]thiophen-11-yl)-benzene-1,2-diol] |
| -32.41 | 384 | Oc1c(Br)cc(-c2c3ccccc3c(Br)c3sc4ccccc4c23)cc1Br [Example 21, 2,6-Dibromo-4-(6-bromo-benzo[b]naphtho[2,3-d]thiophen-11-yl)-phenol] |
| -3.02 | 1180 | CC(=O)Oc1ccc(-c2c3ccccc3c(Br)c3sc4ccccc4c23)cc1 [Example 37, 4-(6-Bromo-benzo[b]naphtho[2,3-d]thiophen-11-yl-phenol)acetate(ester)] |
| -1.40 | 1100 | CC(C)c1cc(-c2c3ccccc3c(Br)c3sc4ccccc4c23)cc(C(C)C)c1O [Example 40, 4-(6-Bromo-benzo[b]naphtho[2,3-d]thiophen-11-yl)-2,6-diisopropyl-phenol] |
| -39.32 | 1080 | Oc1ccc(-c2c3ccccc3c(Br)c3sc4ccccc4c23)cc1 [Example 41, 4-(6-Bromo-benzo[b]naphtho[2,3-d]thiophen-11-yl)-phenol] |
| -21.28 | 1500 | Oc1cccc(-c2c3ccccc3c(Br)c3sc4ccccc4c23)c1 [Example 42, 3-(6-Bromo-benzo[b]naphtho[2,3-d]thiophen-11-yl)-phenol] |
| -14.62 | 189 | Oc1ccc(-c2c3ccccc3c(Br)c3sc4ccccc4c23)cc1O [Example 43, 4-(6-bromo-benzo[b]naphtho[2,3-d]thiophen-11-yl)-benzene-1,2-diol] |
| -43.32 | 1010 | N#Cc1c2ccccc2c(-c2cc(Br)c(O)c(Br)c2)c2c1sc1ccccc12 [Example 58, 11-(3,5-Dibromo-4-hydroxy-phenyl)-benzo[b]naphtho[2,3-d]thiophene-6-carbonitrile] |
| -35.46 | 612 | Oc1c(Br)cc(-c2c3ccccc3c(I)c3sc4ccccc4c23)cc1Br [Example 59, 2,6-Dibromo-4-(6-iodo-benzo[b]naphtho[2,3-d]thiophen-11-yl)-phenol] |
| -25.07 | 129 | Oc1c(Br)cc(-c2c3ccccc3c(Cl)c3sc4ccccc4c23)cc1Br [Example 60, 2,6-Dibromo-4-(6-chloro-benzo[b]naphtho[2,3-d]thiophen-11-yl)-phenol] |
| -40.14 | 654 | Cc1c2ccccc2c(-c2cc(Br)c(O)c(Br)c2)c2c1sc1ccccc12 [Example 62, 2,6-Dibromo-4-(6-methyl-benzo[b]naphtho[2,3-d]thiophen-11-yl)-phenol] |
| -47.53 | 904 | COc1c2ccccc2c(-c2cc(Br)c(O)c(Br)c2)c2c1sc1ccccc12 [Example 63] |
| -15.90 | 347 | Oc1c(Br)cc(-c2c3ccccc3c(Sc3ccccc3)c3sc4ccccc4c23)cc1Br [Example 64, 2,6-Dibromo-4-(6-phenylsulfanyl-benzo[b]naphtho[2,3-d]thiophen-11-yl)-pheno] |
| -26.32 | 1020 | Oc1cc(-c2c3ccccc3c(Br)c3sc4ccccc4c23)ccc1Br [Example 68, 2-Bromo-5-(6-bromo-benzo[b]naphtho[2,3-d]thiophen-11-yl)-phenol] |
| -35.74 | 79 | Oc1cc(Br)c(-c2c3ccccc3c(Br)c3sc4ccccc4c23)cc1O [Example 71, 4-Bromo-5-(6-bromo-benzo[b]naphtho[2,3-d]thiophen-11-yl)-benzene-1,2-diol] |
| -47.69 | 1990 | N#Cc1cc(-c2c3ccccc3cc3sc4ccccc4c23)cc(C#N)c1OCC(=O)O [Example 81, [(4-Benzo[b]naphtho[2,3-d]thiophen-11-yl)-2,6-dicyano-phenoxy]-acetic acid] |
| -39.80 | 2000 | N#Cc1cc(-c2c3ccccc3cc3sc4ccccc4c23)ccc1OCC(=O)O [Example 82, [(4-benzo[b]naphtho[2,3-d]thiophen-11-yl)-2-cyano-phenoxy]-acetic acid] |
| -97.10 | 1300 | O=C(O)COc1cc(-c2c3ccccc3c(Br)c3sc4ccccc4c23)ccc1Br [Example 91, [2-Bromo-5-(6-bromo-benzo[b]naphtho[2,3-d]thiophen-11-yl)-phenoxyl]-acetic acid] |
| -98.16 | 644 | O=C(O)COc1cc(-c2c3ccccc3c(Br)c3sc4ccccc4c23)c(Br)cc1Br [Example 92, [2,4-Dibromo-5-(6-bromo-benzo[b]naphtho[2.3-d]thiophen-1-yl)-phenoxyl]-acetic acid] |
| -12.78 | 1520 | COC(=O)[C@H](Cc1ccccc1)Oc1c(Br)cc(-c2c3ccccc3c(Br)c3sc4ccccc4c23)cc1Br [Example 110, (S)-2-[2,6-Dibromo-4-(6-bromo-benzo[b]naphtho[2,3-d]thiophen-11-yl)-phenoxy]-3-phenyl-propionic acid, methyl ester] |
| -68.03 | 589 | O=C(O)[C@H](Cc1ccccc1)Oc1ccc(-c2c3ccccc3c(Br)c3sc4ccccc4c23)cc1 [Example 114, (S)-2-[4-(6-bromo-benzo[b]naphtho[2,3-d]thiophen-11-yl)-phenoxy]-3-phenyl-propionic acid] |
| -61.89 | 765 | N#Cc1c2ccccc2c(-c2ccc(O[C@H](Cc3ccccc3)C(=O)O)cc2)c2c1sc1ccccc12 [Example 116, (R)-2-[4-(6-Cyano-benzo[b]naphtho[2,3-d]thiophen-11-yl)-phenoxy]-3-phenyl-propionic acid] |
| -82.00 | 31 | O=C(O)[C@H](CCc1ccccc1)Oc1c(Br)cc(-c2c3ccccc3c(Br)c3sc4ccccc4c23)cc1Br [Example 118] |
| -17.35 | 541 | O=C(O)[C@@H](Cc1c[nH]cn1)Oc1c(Br)cc(-c2c3ccccc3c(Br)c3sc4ccccc4c23)cc1Br [Example 120, (R)-2-[2,6-Dibromo-4-(6-bromo-benzo[b]naphtho[2,3-d]thiophen-11-yl)-phenoxy]-3-(1 H-imidazol-4-yl)-propionic acid, hydrochloride] |
| -70.01 | 85 | O=C(O)[C@@H](CCN1Cc2ccccc2C1=O)Oc1c(Br)cc(-c2c3ccccc3c(Br)c3sc4ccccc4c23)cc1Br [Example 124, (2R)-2-[2,6-Dibromo-4-(6-bromo-benzo[b]naphtho[2,3-d]thiophen-11-yl)-phenoxy]-4-(1-oxo-1,3-dihydro-isoindol-2-yl)-butyric acid] |
| -72.14 | 800 | O=C(O)[C@@H](Cc1ccccc1)Oc1c(Cl)cc(-c2c3ccccc3c(Br)c3sc4ccccc4c23)cc1Cl [Example 130, (R)-2-[2,6-Dichloro-4-(6-bromo-benzo[b]naphtho[2,3-d]thiophen-11-yl)-phenoxy]l-3-phenyl-propionic acid] |
| -49.27 | 311 | C[C@@H](Oc1c(I)cc(-c2c3ccccc3cc3sc4ccccc4c23)cc1I)C(=O)O [Example 132, (R)-2-(4-Benzo[b]naphtho[2,3-d]thiophen-11-yl-2,6-diiodo-phenoxy)-propionicacid] |
